Measured values published in patent US20240174728A1, “A USE OF A POLYPEPTIDE COMPOUND IN THE PREPARATION OF DRUGS FOR PREVENTING OR TREATING INFLAMMATORY BOWEL DISEASES AND RELATED INTESTINAL FIBROSIS” (Shenzhen Turier Biotech Co., Ltd., priority 2021, published 2024).
Starred links: 1 amine or outer side, 2 acyl side, 3 side chain; linkers in the order of their positions; H or OH if unused. Non-standard residues stand in square brackets, D forms with d. Groups on a side chain read outwards from the residue. Primed or numbered codes have the meaning given here. No end group written: not given here. *: point of attachment. C20 diacid = O=C(O)CCCCCCCCCCCCCCCCCCC(=O)*; γGlu = O=C(O)[C@H](CCC(=O)[*:2])N[*:1]; Iva = CC[C@](C)(N)C(=O)O; PEG2′ = not defined here; Aib = CC(C)(N)C(=O)O

How the values were obtained:
[1] = tested on: DSS induced acute intestinal fibrosis model of mouse; assay: DSS induced acute intestinal fibrosis model of mouse (Example 2); type: in vivo, Balb/c mice; conditions: 3% DSS Day 1-7, compared with model group; for content of serum IL-6 (FIG. 7) / content of serum MMP-12 (FIG. 7) / collagenous fiber of colon tissues, Masson stained slice (FIG. 4A) / colon Ly-6g+ cells (neutrophile granulocyte infiltration), immunohistochemical staining (FIG. 6) / colon mucous layer α-SMA protein expression, immunohistochemical staining (FIG. 5): 120 μg/kg s.c. once/day; for content of serum IL-6 (FIG. 7) / content of serum MMP-12 (FIG. 7): 9th day serum, ##P≤0.01; for colon tissue morphology, HE stained slice (FIG. 3) / blue staining area of colon tissues, area ratio of blue collagen fibers to colon tissue in Masson staining (FIG. 4B): polypeptide 120 μg/kg s.c. or 6-TG 2 mg/kg p.o. once/day; for blue staining area of colon tissues, area ratio of blue collagen fibers to colon tissue in Masson staining (FIG. 4B): #P≤0.05
Text: The DSS in this example is purchased from MP Biomedicals (CAS No.: 9011-18-1), and the positive control compound 6-thioguanine (6-TG) is a compound based on prior art and is purchased from Shanghai Aladdin Biochemical Technology Co., Ltd. (CAS No.: 154-42-7).
(§1) After 7 days of adaptive feeding, 114 Balb/c mice of 6-8 weeks age (purchased from Guangdong Medical Laboratory Animal Center, with weight approx. 16-20 g) are subjected to the experiment. Then randomly put the mice into 19 groups, with 6 mice in each group. The groups are normal group, model group, 6-TG group and polypeptide compound groups 1-16.
Model the 19 groups of mice and administer the drug to them for 8 days. In the 8 days, the normal group is given normal drinking water and is given subcutaneous injection of PBS once every day. From Day 1 to Day 7, the model group drinks 3% DSS and is given subcutaneous injection of PBS once every day. On Day 8, 3% DSS is replaced with normal drinking water and subcutaneous injection of PBS is given once. From Day 1 to Day 7, the 6-TG group drinks 3% DSS and is given 2 mg/kg 6-TG by the means of gavage once every day. On Day 8, 3% DSS is replaced with normal drinking water and 2 mg/kg 6-TG is given by the means of gavage once. From Day 1 to Day 7, the polypeptide compound groups 1-16 drink 3% DSS and are given subcutaneous injection of 120 μg/kg polypeptide compounds 1-16 once every day. On Day 8, 3% DSS is replaced with normal drinking water and subcutaneous injection of 120 μg/kg polypeptide compounds 1-16 is given once.
In the drug administration period, the randomly selected polypeptide compound groups 3, 8, 11, 12, 13 and 14 and the normal group, model group and 6-TG group are used for testing, and the body weight, feces consistency and feces OB of the mice are recorded every day. The GraphPad Prism 8.3.0 software is used to plot the data into a diagram. Feces OB is measured by the benzidine method.
On the 9th day, all mice are killed. The serums and colon tissues of the mice are collected. The colon and cecum of the mice are removed together. The colon length is measured. The GraphPad Prism 8.3.0 software is used to plot the data into a diagram.
The serums of the mice from the randomly selected polypeptide compound groups 3, 8, 11, 12, 13 and 14 of the present invention and the normal group and model group are used for cytokine test.
(§2) The colons of the mice from the randomly selected polypeptide compound groups 3, 8, 11, 12, 13 and 14 and the normal group, model group and 6-TG group in the present invention are taken. Approx. 5 mm of intestinal segment is taken from the distal end of each colon and is fixed in 10% formalin. The specimens are fixed, dehydrated, wrapped in paraffin and sliced (5 μm). Then tissue HE staining, Masson staining, α-SMA α-SMA protein immunohistochemical staining and Ly-6g protein immunohistochemical staining are completed.

[2] = tested on: DSS induced chronic intestinal fibrosis model of mouse; assay: DSS induced chronic intestinal fibrosis model of mouse (Example 3, three cycles); type: in vivo, Balb/c mice; conditions: 2% DSS 5 days then water 2 weeks, 3 cycles, 120 μg/kg s.c. once/day, compared with model group; for blue staining area of colon tissues, area ratio of blue collagen fibers to colon tissue in Masson staining (FIG. 11B): #P≤0.05, ##P≤0.01; for content of serum IL-6 (FIG. 13) / content of serum MMP-8 (FIG. 13): serum at end of three cycles
Text: as §1
In the whole process, the normal group is given normal drinking water and is given subcutaneous injection PBS once every day. The model group is first given 2% DSS for 5 days and then given normal drinking water for 2 weeks. This is 1 cycle. The cycle is done 3 times. Subcutaneous injection of PBS is given once every day. The 6-TG group is first given 2% DSS for 5 days and then given normal drinking water for 2 weeks. This is 1 cycle. The cycle is done 3 times. 2 mg/kg 6-TG is given by the means of gavage once every day. The polypeptide compound groups 1-16 are first given 2% DSS for 5 days and then given normal drinking water for 2 weeks. This is 1 cycle. The cycle is done 3 times. Subcutaneous injection of 120 μg/kg polypeptide compounds 1-16 is given once every day.
During the administration period, the polypeptide compound groups 3, 8, 11, 12, 13 and 14 and the normal group, model group and 6-TG group are randomly selected, and the body weight, feces consistency and feces OB of the mice are recorded every day. The GraphPad Prism 8.3.0 software is used to plot the data into a diagram.
After completion of the 3rd cycle, the mice are dissected. The serums and colon tissues of the mice are collected. The colon and cecum are removed together. The colon length is measured. The GraphPad Prism 8.3.0 software is used to plot the data into a diagram.
The serums of the mice from the randomly selected polypeptide compound groups 3, 8, 11, 12, 13 and 14 and the normal group and model group of the present invention are used for cytokine test.
as §2, with “normal” for “normal group, model”, “model” for “6-TG”, “Masson” for “Masson staining, α-SMA α-SMA protein immunohistochemical”, “Fibronectin” for “Ly-6g”

| Substance | content of serum IL-6 (FIG. 7) [1] | content of serum MMP-12 (FIG. 7) [1] | collagenous fiber of colon tissues, Masson stained slice (FIG. 4A) [1] | colon Ly-6g+ cells (neutrophile granulocyte infiltration), immunohistochemical staining (FIG. 6) [1] | colon mucous layer α-SMA protein expression, immunohistochemical staining (FIG. 5) [1] | colon tissue morphology, HE stained slice (FIG. 3) [1] | blue staining area of colon tissues, area ratio of blue collagen fibers to colon tissue in Masson staining (FIG. 4B) [1] | collagenous fiber of colon tissues, Masson stained slice (FIG. 11A) [2] | colon mucous layer Fibronectin protein expression, immunohistochemical staining (FIG. 12) [2] | colon tissue morphology, HE stained slice (FIG. 10) [2] | blue staining area of colon tissues, area ratio of blue collagen fibers to colon tissue in Masson staining (FIG. 11B) [2] | content of serum IL-6 (FIG. 13) [2] | content of serum MMP-8 (FIG. 13) [2] |
| --- | --- | --- | --- | --- | --- | --- | --- | --- | --- | --- | --- | --- | --- |
| His-Aib-Gln-Gly-Thr-Phe-Thr-Ser-Asp-Lys(PEG2-PEG2-γGlu-CO(CH2)18CO2H)-Ser-Lys-Tyr-Leu-Asp-Glu-Arg-Ala-Ala-Gln-Asp-Phe-Iva-Gln-Trp-Leu-Leu-Asp-Gly-Gly-Pro-Ser-Ser-Gly-Aib-Pro-Pro-Pro-Ser-NH2 (H[Aib]QGTFTSDK([PEG2′-PEG2′-γGlu-C20 diacid])SKYLDERAAQDF[Iva]QWLLDGGPSSG[Aib]PPPS-NH2) [Compound 8] | clearly decreases | clearly decreases | noticeably decrease | clearly decrease | clearly decreased | become intact | noticeably decrease | noticeably decrease | clearly decreased | become intact | noticeably decrease | clearly decreases | clearly decreases |
| His-(D-Ser)-Gln-Gly-Thr-Phe-Thr-Ser-Asp-Lys(Gly-Gly-Ser-Gly-Ser-Gly-γGlu-CO(CH2)18-COOH)-Ser-Lys-Tyr-Leu-Glu-Aib-Lys-Ala-Ala-Gln-Asp-Phe-Val-Glu-Trp-Leu-Lys-Ala-Gly-Gly-Pro-Ser-Ser-Gly-Ala-Pro-Pro-Pro-Ser-NH2 (HXQGTFTSDKSKYLEXKAAQDFVEWLKAGGPSSGAPPPS; D-Ser, Aib, γGlu-C20 diacid lipidation, C-amide; Compound 14; (2)..(2) X=D-Ser; (10)..(10) A side chain of Lys is linked to -Gly-Gly-Ser-Gly-Ser-Gly-AGlu-CO(CH2)18-COOH; (16)..(16) X=Aib) | clearly decreases | clearly decreases | noticeably decrease | clearly decrease | clearly decreased | become intact | noticeably decrease | noticeably decrease | clearly decreased | become intact | noticeably decrease | clearly decreases | clearly decreases |
